This is an account of results in patent US20240197664A1, “SIRTUIN OR KLOTHO ACTIVATOR OR EXPRESSION ENHANCER, NAD+ INCREASING AGENT, AND SENOLYTIC AGENT” (WAKUNAGA PHARMACEUTICAL CO., LTD., priority 2021, published 2024).

Each structure is given as a SMILES string.

Test [1] concerns senescence-accelerated mice SAMP8. As to the kind of experiment: Cognitive/memory retention action (in vivo), passive avoidance test. Particulars: mixed with food for four months, holding trial after two months. The method, then: (§1) Animals for evaluating the biological activity were bred as follows. Senescence-accelerated mice SAMP8 (male) for testing were purchased from Japan SLC, Inc. After purchase, the animals were acclimatized for one week and used as animals for the evaluation tests.
The sample prepared in the above (1) (a) was mixed with food and fed to animals for evaluation test in the above (2) for four months, and then a passive avoidance test was performed. The passive avoidance test is a test utilizing a habit that a mouse prefers a dark place, and on Day 1, a mouse already in a bright room was moved to a dark room while receiving an electrical shock (50 V/1 second), and the time it took for the mouse to enter the dark room was taken as response latency of an acquisition trial. After two months, the mouse was put in the bright room again and the time it took to move to the dark room (the response latency of a holding trial) was used as an index of memory.

In the next test the target is T1, SIRT1 (Mus musculus, UniProt Q923E4).
T1 construct: from tissue; host or cells: cerebral cortex of SAMP8 mice
T1 sequence (Q923E4 1-737): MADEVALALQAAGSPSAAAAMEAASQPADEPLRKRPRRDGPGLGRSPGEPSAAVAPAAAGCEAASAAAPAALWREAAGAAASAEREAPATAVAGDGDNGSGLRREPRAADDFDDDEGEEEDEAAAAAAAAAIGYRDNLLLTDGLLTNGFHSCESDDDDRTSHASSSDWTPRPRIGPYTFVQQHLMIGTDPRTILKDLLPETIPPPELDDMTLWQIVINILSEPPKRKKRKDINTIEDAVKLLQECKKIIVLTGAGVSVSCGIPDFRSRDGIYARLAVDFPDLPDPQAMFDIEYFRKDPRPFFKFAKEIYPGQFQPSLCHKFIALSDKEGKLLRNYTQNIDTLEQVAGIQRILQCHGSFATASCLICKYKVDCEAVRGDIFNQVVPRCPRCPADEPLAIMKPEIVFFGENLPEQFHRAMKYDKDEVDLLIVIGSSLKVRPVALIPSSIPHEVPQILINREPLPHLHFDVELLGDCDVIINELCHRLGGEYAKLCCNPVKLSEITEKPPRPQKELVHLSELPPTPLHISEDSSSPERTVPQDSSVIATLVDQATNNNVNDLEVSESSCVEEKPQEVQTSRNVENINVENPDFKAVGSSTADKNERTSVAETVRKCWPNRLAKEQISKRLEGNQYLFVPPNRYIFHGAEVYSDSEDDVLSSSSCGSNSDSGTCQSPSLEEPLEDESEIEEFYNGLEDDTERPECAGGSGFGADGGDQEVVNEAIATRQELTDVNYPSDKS
The test can be described thus: SIRT1 activation action (in vivo), SIRT1_GLO kit on cerebral cortex lysate. On the set-up: species or system senescence-accelerated mice SAMP8. The settings on record: single oral dose, 180 minutes after administration, vs control group. The method, then: as §1
A SIRT1_GLO kit manufactured by Promega Corporation was purchased to measure the sirtuins activity. A lysate of the cerebral cortex was placed in a 96-well plate, various reaction reagents were added, and then luminous intensity of luciferase was measured by a plate reader.
A single dose of the sample prepared in the above (1) (a) was orally administrated to animals for the evaluation tests in the above (2), and then cerebral cortices of such animals were extracted 15, 30, 60, and 180 minutes later. The cerebral cortices were crushed using an automatic tissue crusher and lysed by adding a cell dissolution liquid. Centrifugation was performed and the sirtuins activity in the supernatant thereof was measured.

Test [2] has as its system kidney injury molecule (KIM-1). The test can be described thus: Inhibitory action on kidney injuries (in vivo), KIM-1 Western Blotting. The settings on record: repeated oral administration for two weeks. On the set-up: species or system senescence-accelerated mice SAMP8.
Source text: as §1
(§2) After repeated oral administration of the sample prepared in the above (1) (a) to the animals for the evaluation tests in the above (2) for two weeks, kidneys of such animals were excised. After the kidneys were crushed using an automatic tissue crusher, the cells were lysed with an RIPA cell lysis buffer manufactured by Millipore Corporation which was diluted 10-fold with purified water added with a protease inhibitor and a phosphatase inhibitor manufactured by Roche and then centrifuged (10,000 rpm, 10 min, 4° C.), and the supernatant was used as a cell extract. The cell extract was used for analysis by Western Blotting according to a conventional method. A kidney injury molecule (KIM-1) antibody (manufactured by R&D System) and a lipocalin-2 (NGAL) antibody (manufactured by Proteintech Group, Inc.), KIM-1 and NGAL being markers of kidney injuries, and an anti-GAPDH antibody (manufactured by Fujifilm Wako Pure Chemical Corporation) were used as antibodies.
In general terms: A western blot detects proteins with antibodies after separation by electrophoresis.

For the next test, the system named is p21 gene. The test can be described thus: Suppression of senescent cell marker p21 gene expression in the kidney (in vivo), real-time PCR. Details: species or system senescence-accelerated mice SAMP8. The settings on record: repeated oral administration for two weeks.
Source text: as §1
(§3) After repeated oral administration of the sample prepared in the above (1) (a) to the animals for the evaluation tests in the above (2) for two weeks, kidneys of such animals were excised. The kidneys were crushed using an automatic tissue crusher, and then RNA was extracted using a TRIzol solution manufactured by Thermo Fisher Scientific K.K.
(§4) CDNA was synthesized using PRIMEScript RT reagent Kit with gEraser manufactured by Takara. The synthesized cDNA was subjected to real-time PCR using KAPA SYBR Fast qPCR kit manufactured by Nippon Genetics Co., Ltd. Results are shown in FIG. 6.
In general terms: Quantitative PCR measures a nucleic acid by following its amplification.

Another test has as its system p16 gene. As to the kind of experiment: Suppression of senescent cell marker p16 gene expression in the kidney (in vivo), real-time PCR. On the set-up: species or system senescence-accelerated mice SAMP8. Particulars: repeated oral administration for two weeks.
Source text: as §1, §3, §4

The next test relates to SIRT1 gene. As to the kind of experiment: Enhancement of SIRT1 gene expression in the kidney (in vivo), real-time PCR. The settings on record: repeated oral administration for two weeks. On the set-up: species or system senescence-accelerated mice SAMP8.
Source text: as §1
(§5) After repeated oral administration of the sample prepared in the above (1) (a) to the animals for the evaluation tests in the above (2) for two weeks, kidneys of such animals were excised. The kidneys were crushed using an automatic tissue crusher, and then RNA was extracted using a TRIzol solution manufactured by Thermo Fisher Scientific K.K. cDNA was synthesized using PRIMEScript RT reagent Kit with gEraser manufactured by Takara. The synthesized cDNA was subjected to real-time PCR using KAPA SYBR Fast qPCR kit manufactured by Nippon Genetics Co., Ltd. Results are shown in FIG. 5.

Another test relates to p53 protein. As to the kind of experiment: Suppression of cellular senescence marker p53 protein in the hippocampus (in vivo), Western Blotting. On the set-up: species or system senescence-accelerated mice SAMP8. The settings on record: repeated oral administration for six weeks.
Source text: as §1
(§6) After repeated oral administration of the sample prepared in the above (1) (a) to animals for the evaluation tests in the above (2) for six weeks, hippocampi of such animals were excised. After the hippocampi were crushed using an automatic tissue crusher, the cells were lysed with a RIPA cell lysis buffer manufactured by Millipore Corporation which was diluted 10-fold with purified water added with a protease inhibitor and a phosphatase inhibitor manufactured by Roche, and then centrifuged (10,000 rpm, 10 min, 4° C.), and the supernatant was used as a cell extract. The cell extract was used for analysis by Western Blotting according to a conventional method. An anti-p53 antibody (manufactured by Proteintech Group, Inc.) and an anti-β-actin antibody (manufactured by Medical and Biological Laboratories Co., Ltd.) were used as antibodies.

In the next test the test system is NAD+. The test can be described thus: NAD+ amount increasing action (in vivo), NAD+/NADH Assay Kit. On the set-up: species or system senescence-accelerated mice SAMP8. Particulars: single oral dose (180 minutes later) and mixed with food for one month; cerebral cortices. The protocol: as §1
A single dose of the sample prepared in (1) (a) was orally administered to animals for the evaluation tests in the above (2), and then cerebral cortices of such animals were excised 180 minutes later. In addition, the sample prepared in the above (1) (a) was mixed with food and fed to animals for the evaluation tests in the above (2) for one month, and then cerebral cortices of such animals were excised. The NAD^+ amount in the cerebral cortices was measured using NAD^+/NADH Assay Kit manufactured by Dojindo Laboratories.

A further test deals with Klotho gene. As to the kind of experiment: Enhancement of Klotho gene expression in the kidney (in vivo), real-time PCR. Details: species or system senescence-accelerated mice SAMP8. Particulars: repeated oral administration for two weeks.
Source text: as §1, §5

A further test has as its system lipocalin-2 (NGAL). As to the kind of experiment: Inhibitory action on kidney injuries (in vivo), NGAL Western Blotting. Details: species or system senescence-accelerated mice SAMP8. The settings on record: repeated oral administration for two weeks.
Source text: as §1, §2

The next test relates to SIRT1 protein. As to the kind of experiment: SIRT1 protein increasing action (in vivo), Western Blotting of hippocampus. Details: species or system senescence-accelerated mice SAMP8. Particulars: repeated oral administration for two weeks.
Source text: as §1
as §6, with “two” for “six”, “combined protease/phosphatase inhibitors” for “a protease inhibitor and a phosphatase inhibitor”, “Thermo Fisher Scientific K.K.,” for “Roche,”, “anti-SIRT1” for “anti-p53”, “Biolegend)” for “Proteintech Group, Inc.)”, “Fujifilm Wako Pure Chemical Corporation)” for “Medical and Biological Laboratories Co., Ltd.)”

For `CC=CSCC(N)C(=O)O` (centres unmarked) [S-1-propenylcysteine], the “aging-related decline in cognitive and memory functions (response latency of holding trial)” value in [1] is “ameliorated”. The “Sirtuin activity in cerebral cortex” value at SIRT1 is recorded as “increased”. The “KIM-1 protein mass in the kidney” value in [2] is given as “reduced”. Besides, in the test with p21 gene, the “cells expressing p21 gene in the kidneys” value is on record as “reduced”. Moreover, the “cells expressing p16 gene in the kidneys” value with p16 gene was “reduced”. Further, the “expression of SIRT1 gene in the kidney” value in the test on SIRT1 gene is reported as “increased”. The “p53 protein mass in the hippocampus” value in the test on p53 protein is reported as “reduced”. Besides, the “NAD+ amount” value in the test with NAD+ is on record as “increased”. In addition, in the test on Klotho gene, the “expression of Klotho gene in the kidney” value is “increased”. Moreover, in the test on lipocalin-2 (NGAL), the “NGAL protein mass in the kidney” value is recorded as “reduced”. Further, the “SIRT1 protein mass in the hippocampus” value in the test with SIRT1 protein is “increased”.
